In PubChem BioAssay AID743073 (Broad Institute, 2013):
The source made the active and inactive calls. How the calls were made is not given here.

Tested on: M. tuberculosis BioA-TetON overexpression strain, growth inhibition
Test: PubChem AID 743073
Settings: for IC90: IC90 growth inhibition

Row | Compound | IC50 | IC90 [µM]
1 | O=C(Nc1ccc2snnc2c1)N1CCOCC1 | > 50 µM (inactive) | > 50
2 | Cc1nc2ccc(NC(=O)N3CCN(c4ccccc4)CC3)cc2s1 | 2.8 µM | 23.6
3 | CC(=O)c1ccc(N2CCN(Cc3ccc4c(c3)OCO4)CC2)cc1 | > 50 µM (inactive) | > 50
4 | CCc1ccc(C(=O)N2CCN(Cc3ccc4c(c3)OCO4)CC2)cc1 | 11.2 µM | 47.2
5 | O=C(Nc1ccncc1)c1cc2nc(C3CC3)cc(C(F)F)n2n1 | > 50 µM (inactive) | > 50
6 | Cc1ccc(/C=C(\CCC(=O)O)c2nc3ccccc3s2)cc1 | 1.7 µM | 5.8
7 | CC(=O)c1ccc(N2CCN(C(=O)c3cccnc3)CC2)cc1 | > 50 µM (inactive) | > 50
8 | O=C(Nc1ccccc1)N1CCN(c2ccccc2)CC1 | 9.9 µM | > 50
9 | Cc1cc(C)n2nc(C(=O)Nc3cccnc3)cc2n1 | > 50 µM (inactive) | > 50
10 | CCN(CC)c1ccc2cc(C(=O)c3cccs3)c(=O)oc2c1 | 6.4 µM | > 50
11 | CC(=O)c1ccc(N2CCN(C(=O)c3cccc(Cl)c3)CC2)cc1 | 44.3 µM (inactive) | > 50
12 | O=C(COc1ccc2ccc(=O)oc2c1)N1CCN(c2ccc(F)cc2)CC1 | > 50 µM (inactive) | > 50
13 | O=C(Nc1cccnc1)c1cc2nc(-c3cccs3)cc(C(F)(F)F)n2n1 | > 50 µM (inactive) | > 50
14 | O=C(Nc1cccc(Cl)c1)N1CCN(c2ccccc2)CC1 | 25.4 µM | > 50
15 | O=C(Nc1cccnc1)c1cnn2c(C(F)(F)F)cc(-c3ccccc3)nc12 | > 50 µM (inactive) | > 50
16 | CCc1ccc(N2CCN(C(=O)c3ccc4c(c3)OCO4)CC2)cc1 | 16.1 µM | > 50
17 | O=C(O)CC/C(=C\c1ccccc1[N+](=O)[O-])c1nc2ccccc2s1 | > 50 µM (inactive) | > 50
18 | O=C(c1ccc2c(c1)OCO2)N1CCN(c2ccccc2)CC1 | 24.4 µM | > 50
19 | O=C(c1ccc2c(c1)OCO2)N1CCN(c2ccc(Cl)cc2)CC1 | 11.6 µM | 47.2
20 | COc1cc(/C=C/C(=O)Nc2cccnc2)cc(OC)c1OC | > 50 µM (inactive) | > 50

Row | Compound | IC50 | IC90 [µM]
21 | COc1cccc(C(=O)N2CCN(c3ccc(C(C)=O)cc3)CC2)c1 | > 50 µM (inactive) | > 50
22 | Cc1cc(C)n2nc(C(=O)Nc3cccnc3)nc2n1 | > 50 µM (inactive) | > 50
23 | COc1cccc(NC(=O)CCC2CCN(C(=O)c3ccc(C(C)=O)s3)CC2)c1 | > 50 µM (inactive) | > 50
24 | O=C(Nc1ccc(Cl)c(-c2nc3ccccc3[nH]2)c1)c1cccnc1 | 10.3 µM | 39.5
25 | CC(=O)c1ccc(N2CCN(C(=O)c3ccc(F)cc3)CC2)cc1 | > 50 µM (inactive) | > 50
26 | CC(=O)c1ccc(N2CCN(C(=O)c3ccc(C)cc3)CC2)cc1 | > 50 µM (inactive) | > 50
27 | COc1ccc(-c2cc(C(F)(F)F)n3nc(C(=O)Nc4cccnc4)cc3n2)cc1 | > 50 µM (inactive) | > 50
28 | O=C(Nc1ccc(Cl)cc1)c1cc2nc(C3CC3)cc(C(F)(F)F)n2n1 | > 50 µM (inactive) | > 50
29 | CC(=O)c1ccc(N2CCN(C(=O)c3ccccc3)CC2)cc1 | > 50 µM (inactive) | > 50
30 | O=C(O)CC/C(=C\c1ccc([N+](=O)[O-])cc1)c1nc2ccccc2s1 | 8.3 µM | 34.3
31 | CC(=O)c1ccc(N2CCN(C(=O)c3ccc(Br)cc3)CC2)c(F)c1 | > 50 µM (inactive) | > 50
32 | COc1ccc(NC(=O)N2CCN(c3ccccc3)CC2)cc1 | > 50 µM (inactive) | > 50
33 | Cc1ccc(/C=C(\CCCC(=O)O)c2nc3ccccc3s2)cc1[N+](=O)[O-] | 5.6 µM | > 50
34 | CC(=O)c1ccc(N2CCN(C(=O)c3cccc(F)c3)CC2)cc1 | > 50 µM (inactive) | > 50
35 | Cc1ccc(NC(=O)N2CCN(c3ccccc3)CC2)cc1 | 50 µM | > 50
36 | O=C(Nc1ccc(F)cc1)N1CCN(c2ccccc2)CC1 | 19.3 µM | > 50
37 | CC(=O)c1ccc(N2CCN(C(=O)c3ccc4c(c3)OCCO4)CC2)cc1 | > 50 µM (inactive) | > 50
38 | CC(=O)c1ccc(N2CCN(C(=O)c3ccc(Cl)cc3)CC2)cc1 | > 50 µM (inactive) | > 50
39 | Cc1ccc(/C=C(\CC(=O)O)c2nc3ccccc3s2)cc1[N+](=O)[O-] | 11.7 µM | > 50
40 | Cc1nc2cc(NC(=O)N3CCN(c4ccccc4)CC3)ccc2o1 | 50 µM | > 50

Row | Compound | IC50 | IC90 [µM]
41 | O=C(Nc1cccnc1)c1cnn2c(C(F)F)cc(C3CC3)nc12 | > 50 µM (inactive) | > 50
42 | CC(C)(C)c1ccc(C(=O)N2CCN(c3ccc4c(c3)OCO4)CC2)cc1 | 13.1 µM | 36.9
43 | CC(=O)c1ccc(N2CCN(C(=O)c3ccc4ncsc4c3)CC2)cc1 | > 50 µM (inactive) | > 50
44 | Cc1ccc(-c2cc(C(F)(F)F)n3nc(C(=O)Nc4cccnc4)cc3n2)cc1 | > 50 µM (inactive) | > 50
45 | O=C(c1ccc2c(c1)OCO2)N1CCN(c2ccc(F)cc2)CC1 | 28.3 µM | > 50
46 | COc1cccc(NC(=O)N2CCN(c3ccccc3)CC2)c1 | 50 µM | > 50
47 | COC(=O)c1c(C(=O)OC)c(-c2cccc(F)c2)n2c1CS(=O)C2 (stereo not given) | > 50 µM (inactive) | > 50
48 | O=C(Nc1ccc2snnc2c1)N1CCCCC1 | 50 µM | > 50
49 | Cc1cccc(/C=C(\CCC(=O)O)c2nc3ccccc3s2)c1 | 3.1 µM | 9
50 | COc1ccc(C(=O)N2CCN(c3ccc(C(C)=O)cc3)CC2)cc1 | > 50 µM (inactive) | > 50
51 | O=C(Nc1cccc(F)c1)N1CCN(c2ccccc2)CC1 | 12.8 µM | > 50
52 | O=C(c1ccc2c(c1)OCO2)N1CCN(Cc2ccccc2)CC1 | > 50 µM (inactive) | > 50
53 | O=C(Nc1cccnc1)N1CCN(c2ccccc2)CC1 | > 50 µM (inactive) | > 50
54 | Cc1ccccc1/C=C(\CCC(=O)O)c1nc2ccccc2s1 | 6.5 µM | 43.5
55 | O=C(Nc1ccc2[nH]ccc2c1)N1CCN(c2ccccc2)CC1 | 7 µM | > 50
56 | CCOC(=O)N1CCN(C(=O)Nc2ccc3snnc3c2)CC1 | > 50 µM (inactive) | > 50
57 | CC(=O)c1ccc(N2CCN(C(=O)c3ccc4c(c3)OCO4)CC2)cc1 | 52 µM (inactive) | > 50
58 | O=C(Nc1ccc2snnc2c1)N1CCN(c2ccccc2)CC1 | > 50 µM (inactive) | > 50
59 | COc1ccc(N2CCN(C(=O)c3ccc4c(c3)OCO4)CC2)cc1 | 17.6 µM | > 50
60 | Cc1ccc(/C=C(\CCC(=O)O)c2nc3ccccc3s2)cc1[N+](=O)[O-] | 1.5 µM | 4.7
